In PMC12157126, “Saturation kinetics and specificity of transporters for L-arginine and asymmetric dimethylarginine (ADMA) at the blood-brain and blood-CSF barriers” (PLOS One, 2025):
Several values for one entry are separate records, joined by “and”; a condition that tells them apart may be missing. Identical values can stand only once. Each block holds one compound with its values, some of them ahead of it.

What was measured:
[1] = tested on: blood-brain and blood-CSF barriers; assay: In situ brain/choroid plexus perfusion with capillary depletion: CNS uptake of [3H]-arginine in absence and presence of transporter inhibitors; type: in vivo, adult male BALB/c mice; design: Difference (Arginine - Sucrose): unit not given here; settings: for uptake of [3H]-arginine: [14C]-sucrose corrected; for Arginine, tissue/plasma ratio / Difference (Arginine - Sucrose): 10 mins, 5ml/min, per mouse
Procedure: (§1) The in situ brain/choroid plexus perfusion method was performed as previously described and will only be briefly detailed here. […] At the end of the perfusion period a CSF sample was taken from the cisterna magna, the animal was decapitated, the brain removed and samples taken under a Leica S4E L2 stereomicroscope (Leica; Buckinghamshire, UK). […] The circumventricular organs (CVOs) including the choroid plexus, pituitary gland and pineal gland were also sampled. Brain samples were also taken for capillary depletion analysis.
(§2) Both the physiological capillary depletion buffer and dextran solution were maintained at 4 °C to halt any cell metabolism and transport processes, and to reduce any cellular or protein damage due to heat generated from the homogenisation process. The whole brain homogenate was then taken for dextran density centrifugation (5,400 x g) and 4 °C to produce an endothelial cell-enriched pellet and supernatant containing brain parenchyma.
(§3) The transporter proteins these inhibitors target are listed in S1 Table in S1 File.
(§4) % change=RTissue−RInhibition /RTissue× 100 (2)

[2] = tested on: blood-brain and blood-CSF barriers; assay: In situ brain/choroid plexus perfusion with capillary depletion: CNS uptake of [3H]-ADMA in absence and presence of transporter inhibitors; settings: for RBrain of [3H]-ADMA in presence of inhibitor: 10 min, sucrose corrected; for RBrain of [3H]-ADMA in presence of inhibitor / % inhibition of [3H]-ADMA uptake: L-homoarginine 20 mM
Procedure: as §1, §2, §3, §4

[3] = In situ brain/choroid plexus perfusion with capillary depletion: CNS uptake of [3H]-arginine in absence and presence of transporter inhibitors; type: in vivo, adult male BALB/c mice; design: Difference (Arginine - Sucrose): unit not given here; settings: male, BALB/c, mouse, 10 mins, 5ml/min, per mouse
Procedure: as §1, §2, §3, §4

[4] = caudate nucleus, BCH 4 mM, α-methyl-D,L-tryptophan 500 μM, L-phenylalanine 200 μM, L-leucine 5 mM, harmaline 2 mM
[5] = frontal cortex, BCH 4 mM, α-methyl-D,L-tryptophan 500 μM, L-phenylalanine 200 μM, L-leucine 5 mM, harmaline 2 mM
[6] = hippocampus, BCH 4 mM, α-methyl-D,L-tryptophan 500 μM, L-phenylalanine 200 μM, L-leucine 5 mM, harmaline 2 mM
[7] = hypothalamus, BCH 4 mM, α-methyl-D,L-tryptophan 500 μM, L-phenylalanine 200 μM, L-leucine 5 mM, harmaline 2 mM
[8] = occipital cortex, BCH 4 mM, α-methyl-D,L-tryptophan 500 μM, L-phenylalanine 200 μM, L-leucine 5 mM, harmaline 2 mM
[9] = pineal gland, BCH 4 mM, α-methyl-D,L-tryptophan 500 μM, L-phenylalanine 200 μM, L-leucine 5 mM, harmaline 2 mM
[10] = thalamus, BCH 4 mM, α-methyl-D,L-tryptophan 500 μM, L-phenylalanine 200 μM, L-leucine 5 mM, harmaline 2 mM

SMILES: NC(N)=NCCCC[C@H](N)C(=O)O [L-homoarginine, reference compound]
- inhibition of [3H]-arginine uptake ([1]; 20 mM L-homoarginine, all brain regions (up to), 10 min): up to 99.7%
- inhibition of [3H]-arginine distribution ([1]; 20 mM L-homoarginine, choroid plexus): 99.8%
- reduced uptake of [3H]-arginine ([1]; 20 mM L-homoarginine, hypothalamus, did not attain statistical significance): 98.0%
- inhibition of [3H]-arginine distribution ([1]; 20 mM L-homoarginine, pituitary gland): 97.6%
- decrease in [3H]-arginine distribution ([1]; L-homoarginine, CSF, failed to attain statistical significance (n=3)): 88.4%
- inhibition of [3H]-ADMA uptake ([2]; 20 mM L-homoarginine, all brain regions (up to)): up to 99.2%
- RBrain of [3H]-ADMA in presence of inhibitor ([2]; CSF, BCH 4 mM, α-methyl-D,L-tryptophan 500 μM, L-phenylalanine 200 μM, L-leucine 5 mM, harmaline 2 mM): 2.45±0.52 ml.100g^-1
- RBrain of [3H]-ADMA in presence of inhibitor [2, 4]: 0.18±0.13 ml.100g^-1
- % inhibition of [3H]-ADMA uptake [2, 4]: 99.2%
- RBrain of [3H]-ADMA in presence of inhibitor ([2]; cerebellum, BCH 4 mM, α-methyl-D,L-tryptophan 500 μM, L-phenylalanine 200 μM, L-leucine 5 mM, harmaline 2 mM): 0.37±0.19 ml.100g^-1
- % inhibition of [3H]-ADMA uptake ([2]; cerebellum): 97.9%
- RBrain of [3H]-ADMA in presence of inhibitor ([2]; choroid plexus, BCH 4 mM, α-methyl-D,L-tryptophan 500 μM, L-phenylalanine 200 μM, L-leucine 5 mM, harmaline 2 mM): 30.73±22.20 ml.100g^-1
- % inhibition of [3H]-ADMA uptake ([2]; choroid plexus, BCH 4 mM, L-phenylalanine 200 μM, L-leucine 5 mM, harmaline 2 mM): 88.2%
- RBrain of [3H]-ADMA in presence of inhibitor [2, 5]: 1.06±1.02 ml.100g^-1
- % inhibition of [3H]-ADMA uptake [2, 5]: 95.7%
- RBrain of [3H]-ADMA in presence of inhibitor [2, 6]: 0.20±0.13 ml.100g^-1
- % inhibition of [3H]-ADMA uptake [2, 6]: 99.1%
- RBrain of [3H]-ADMA in presence of inhibitor ([2]; homogenate, BCH 4 mM, α-methyl-D,L-tryptophan 500 μM, L-phenylalanine 200 μM, L-leucine 5 mM, harmaline 2 mM): 3.74±3.52 ml.100g^-1
- RBrain of [3H]-ADMA in presence of inhibitor [2, 7]: 1.54±1.12 ml.100g^-1
- % inhibition of [3H]-ADMA uptake [2, 7]: 94.9%
- RBrain of [3H]-ADMA in presence of inhibitor [2, 8]: 0.49±0.40 ml.100g^-1
- % inhibition of [3H]-ADMA uptake [2, 8]: 97.8%
- RBrain of [3H]-ADMA in presence of inhibitor ([2]; pellet, BCH 4 mM, α-methyl-D,L-tryptophan 500 μM, L-phenylalanine 200 μM, L-leucine 5 mM, harmaline 2 mM): 2.32±1.65 ml.100g^-1
- RBrain of [3H]-ADMA in presence of inhibitor [2, 9]: 12.43±6.87 ml.100g^-1
- % inhibition of [3H]-ADMA uptake [2, 9]: 93.6%
- RBrain of [3H]-ADMA in presence of inhibitor ([2]; pituitary gland, BCH 4 mM, α-methyl-D,L-tryptophan 500 μM, L-phenylalanine 200 μM, L-leucine 5 mM, harmaline 2 mM): 8.57±3.99 ml.100g^-1
- % inhibition of [3H]-ADMA uptake ([2]; pituitary gland, BCH 4 mM, L-phenylalanine 200 μM, L-leucine 5 mM, harmaline 2 mM): 95.3%
- RBrain of [3H]-ADMA in presence of inhibitor ([2]; pons, BCH 4 mM, α-methyl-D,L-tryptophan 500 μM, L-phenylalanine 200 μM, L-leucine 5 mM, harmaline 2 mM): 2.36±1.06 ml.100g^-1
- % inhibition of [3H]-ADMA uptake ([2]; pons): 90.4%
- % inhibition of [3H]-ADMA uptake ([2]; supernatant (brain parenchyma)): 65.8%
- RBrain of [3H]-ADMA in presence of inhibitor ([2]; supernatant, BCH 4 mM, α-methyl-D,L-tryptophan 500 μM, L-phenylalanine 200 μM, L-leucine 5 mM, harmaline 2 mM): 3.43±1.95 ml.100g^-1
- RBrain of [3H]-ADMA in presence of inhibitor [2, 10]: 1.81±0.71 ml.100g^-1
- % inhibition of [3H]-ADMA uptake [2, 10]: 91.4%
- % inhibition of [3H]-ADMA uptake ([2]; whole brain homogenate, L-phenylalanine 200 μM, L-leucine 5 mM): 78.9%

- Kp at 10 min ([3]; cerebellum, Arginine, tissue/plasma ratio, cerebellum, + 4mM BCH): 0.607
- Kp at 10 min ([3]; cerebellum, Difference (Arginine - Sucrose), cerebellum, + 4mM BCH): 0.575
- Kp at 10 min, […] ([3]; cerebellum, with 20 mM L-homoarginine, Arginine, tissue/plasma ratio, cerebellum, + 20mM L-Homoarginine): 0.0312
- Kp at 10 min, […] ([3]; choroid plexus, Arginine, tissue/plasma ratio, choroid plexus, + 4mM BCH): 2.01
- Kp at 10 min ([3]; choroid plexus, Difference (Arginine - Sucrose), choroid plexus, + 4mM BCH): 1.85
- Kp at 10 min ([3]; frontal cortex, Arginine, tissue/plasma ratio, frontal cortex, + 4mM BCH): 0.649
- Kp at 10 min ([3]; frontal cortex, Difference (Arginine - Sucrose), frontal cortex, + 4mM BCH): 0.617
- Kp at 10 min ([3]; frontal cortex, with L-homoarginine 20 mM in the artificial plasma, Arginine, tissue/plasma ratio, frontal cortex, + 20mM L-Homoarginine): 0.0351
- Kp at 10 min ([3]; hippocampus, Arginine, tissue/plasma ratio, hippocampus, + 4mM BCH): 0.477
- Kp at 10 min ([3]; hippocampus, Difference (Arginine - Sucrose), hippocampus, + 4mM BCH): 0.457
- Kp at 10 min ([3]; occipital cortex, Arginine, tissue/plasma ratio, occipital cortex, + 4mM BCH): 0.631
- Kp at 10 min ([3]; occipital cortex, Difference (Arginine - Sucrose), occipital cortex, + 4mM BCH): 0.6
- Kp at 10 min, […] ([3]; occipital cortex, with 20 mM L-homoarginine, Arginine, tissue/plasma ratio, occipital cortex, + 20mM L-Homoarginine): 0.0199
- Kp at 10 min ([3]; whole brain homogenate, Arginine, tissue/plasma ratio, homogenate, + 4mM BCH): 0.353
- Kp at 10 min ([3]; whole brain homogenate, Difference (Arginine - Sucrose), homogenate, + 4mM BCH): 0.332
- Kp at 10 min, […] ([3]; with 20 mM L-homoarginine, Arginine, tissue/plasma ratio, supernatant, + 20mM L-Homoarginine): 0.0216
- uptake into frontal cortex, times higher than into CSF ([1]; 10 minutes): 5.7 times
- uptake into pellet, times lower than into choroid plexus ([1]; 10 minutes): 39.5 times
- uptake of [3H]-arginine ([1]; CSF, 10 minutes): 9.53 ± 2.41 ml.100g^-1
- uptake of [3H]-arginine ([1]; capillary endothelial cell enriched pellet, 10 minutes): 6.47 ± 1.018 ml.100g^-1
- uptake of [3H]-arginine ([1]; choroid plexus, 10 minutes): 255.86 ± 30.41 ml.100g^-1
- uptake of [3H]-arginine ([1]; frontal cortex, 10 minutes): 54.65 ± 9.21 ml.100g^-1
- Difference (Arginine - Sucrose) ([1]; thalamus): 0.929 and 0.9992 and 0.362 and 0.5168
SMILES: N=C(N)NCCC[C@H](N)C(=O)O [[^3H]-arginine, L-arginine]
- Arginine, tissue/plasma ratio ([1]; caudate nucleus): 0.6618 and 0.8652 and 0.401 and 0.4938 and 0.3347 and 0.5216
- Difference (Arginine - Sucrose) ([1]; caudate nucleus): 0.6456 and 0.7471 and 0.378 and 0.4593 and 0.3101 and 0.4829
- Arginine, tissue/plasma ratio ([1]; choroid plexus): 3.243 and 3.765 and 2.2598 and 3.422 and 1.518 and 2.959
- Difference (Arginine - Sucrose) ([1]; choroid plexus): 3.028 and 3.467 and 2.014 and 2.791 and 1.394 and 2.658
- Arginine, tissue/plasma ratio ([1]; frontal cortex): 0.8204 and 0.8688 and 0.3825 and 0.5285 and 0.3141 and 0.5494
- Difference (Arginine - Sucrose) ([1]; frontal cortex): 0.7931 and 0.8428 and 0.3551 and 0.4902 and 0.2926 and 0.505
- Arginine, tissue/plasma ratio ([1]; hippocampus): 0.5129 and 0.6918 and 0.3896 and 0.4547 and 0.2706 and 0.4979
- Difference (Arginine - Sucrose) ([1]; hippocampus): 0.4962 and 0.6689 and 0.3625 and 0.4201 and 0.2493 and 0.4621
- Arginine, tissue/plasma ratio ([1]; hypothalamus): 0.9811 and 1.538 and 0.3381 and 0.6951 and 0.2905 and 0.3696
- Difference (Arginine - Sucrose) ([1]; hypothalamus): 0.9489 and 1.477 and 0.3149 and 0.634 and 0.2579 and 0.3397
- Arginine, tissue/plasma ratio ([1]; occipital cortex): 0.6317 and 0.7248 and 0.327 and 0.4186 and 0.2687 and 0.5347
- Difference (Arginine - Sucrose) ([1]; occipital cortex): 0.6113 and 0.7014 and 0.3051 and 0.3893 and 0.251 and 0.4973
- Difference (Arginine - Sucrose) ([1]; pineal gland): 1.49 and 0.1187 and 0.66 and 1.347 and 0.9026 and 0.5878
- Arginine, tissue/plasma ratio ([1]; pituitary gland): 3.254 and 2.641 and 1.189 and 1.192 and 1.144 and 2.275
- Difference (Arginine - Sucrose) ([1]; pituitary gland): 3.08 and 2.441 and 0.973 and 1.116 and 1.019 and 2.001
- Arginine, tissue/plasma ratio ([1]; thalamus): 0.9502 and 1.029 and 0.4051 and 0.5618 and 0.2525 and 0.5368
